Calls of active or inactive are those of the source.
Legend:
CAAX prenyl protease 2 = target: T1, CAAX prenyl protease 2 (Saccharomyces cerevisiae S288c, UniProt Q03530); format: biochemical
T1 sequence (Q03530 whole entry): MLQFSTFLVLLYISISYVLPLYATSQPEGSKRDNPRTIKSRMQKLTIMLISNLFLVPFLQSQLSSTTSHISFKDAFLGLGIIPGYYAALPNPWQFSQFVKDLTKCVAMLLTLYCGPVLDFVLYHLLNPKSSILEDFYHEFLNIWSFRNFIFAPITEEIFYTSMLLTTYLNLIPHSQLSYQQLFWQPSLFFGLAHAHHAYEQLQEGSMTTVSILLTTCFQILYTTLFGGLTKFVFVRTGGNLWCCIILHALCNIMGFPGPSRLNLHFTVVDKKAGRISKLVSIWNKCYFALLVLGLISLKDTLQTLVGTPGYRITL

[1] = target: Glyceraldehyde-3-phosphate dehydrogenase (Homo sapiens, UniProt P04406)
[2] = target: T2, Alkaline phosphatase, tissue-nonspecific isozyme (Homo sapiens, UniProt P05186); assay: human TNAP enzyme inhibitors, SAR follow-up, biochemical, luminescent, dose response (AID 1056)
T2 sequence (P05186 whole entry): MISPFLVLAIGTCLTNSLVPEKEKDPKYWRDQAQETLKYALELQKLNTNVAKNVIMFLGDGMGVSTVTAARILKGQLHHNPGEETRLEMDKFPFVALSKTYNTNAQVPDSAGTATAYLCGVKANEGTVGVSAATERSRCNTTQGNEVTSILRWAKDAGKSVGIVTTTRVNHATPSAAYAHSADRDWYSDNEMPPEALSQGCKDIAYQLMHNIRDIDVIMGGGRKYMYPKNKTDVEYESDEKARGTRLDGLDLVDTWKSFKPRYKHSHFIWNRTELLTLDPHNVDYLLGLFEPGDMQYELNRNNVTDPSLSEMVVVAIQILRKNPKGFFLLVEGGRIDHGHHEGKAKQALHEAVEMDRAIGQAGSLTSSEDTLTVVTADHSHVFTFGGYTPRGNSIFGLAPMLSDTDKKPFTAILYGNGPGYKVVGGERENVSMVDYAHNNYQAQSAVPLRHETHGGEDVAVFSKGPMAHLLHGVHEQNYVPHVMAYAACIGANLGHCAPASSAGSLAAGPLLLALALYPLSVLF

Cytochrome P450 2D6 = Cytochrome P450 2D6 (Homo sapiens, UniProt P10635);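 also: CYP2D6 member of a cytochrome P450 panel assay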
Cytochrome P450 1A2 = target: T3, Cytochrome P450 1A2 (Homo sapiens, UniProt P05177);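 also: PubChem cytochrome P450 panel assay, CYP1A2 panel member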
T3 sequence (P05177 whole entry): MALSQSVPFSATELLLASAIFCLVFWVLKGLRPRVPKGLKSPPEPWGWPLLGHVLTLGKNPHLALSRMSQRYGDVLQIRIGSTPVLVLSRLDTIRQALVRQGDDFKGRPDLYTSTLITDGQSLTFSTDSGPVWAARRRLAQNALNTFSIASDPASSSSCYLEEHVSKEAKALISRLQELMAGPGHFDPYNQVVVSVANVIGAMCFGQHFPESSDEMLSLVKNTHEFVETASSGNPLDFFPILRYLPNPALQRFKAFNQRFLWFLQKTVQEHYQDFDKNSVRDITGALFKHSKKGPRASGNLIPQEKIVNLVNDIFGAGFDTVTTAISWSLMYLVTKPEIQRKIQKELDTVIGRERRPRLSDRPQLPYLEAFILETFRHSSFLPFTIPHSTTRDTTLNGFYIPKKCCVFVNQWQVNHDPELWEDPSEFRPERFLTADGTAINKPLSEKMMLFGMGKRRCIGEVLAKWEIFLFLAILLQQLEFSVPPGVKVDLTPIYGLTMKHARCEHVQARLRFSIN

Cytochrome P450 3A4 = Cytochrome P450 3A4 (Homo sapiens, UniProt P08684);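 also: CYP3A4 tested as one member of a cytochrome P450 panel screen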
[3] = target: 72 kDa type IV collagenase (Homo sapiens, UniProt P08253); assay: Dose Response validation of uHTS RPN11 inhibitor hits using a MMP-2 Fluorescence assay.; format: functional
[4] = growth suppression of PTEN-null colon cells, dose response, cell-based, HCT116 PTEN knockout (AID 1047); format: functional;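 also: HCT116 colon tumor cells with PTEN knocked out; cells exposed to compound for 60 hours before readout; potency for loss of cell viability measured by luminescence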
[5] = target: Induced myeloid leukemia cell differentiation protein Mcl-1 (Homo sapiens, UniProt Q07820); assay: Mcl-1/Noxa binding inhibitor potency, dose response, biochemical, TR-FRET (AID 1417); format: functional
Prothrombin = Prothrombin (Bos taurus, UniProt P00735); assay: thrombin inhibition, dose response, biochemical, fluorescence polarization, uHTS hits (AID 602369); format: functional
[6] = target: 26S proteasome non-ATPase regulatory subunit 14 (Homo sapiens, UniProt O00487); assay: inhibition of proteasome subunit RPN11 – biochemical, fluorescence polarization, uHTS hits, confirmation (AID 602368); format: functional
[7] = growth suppression of beta-catenin-knockout colon cells, dose response, cell-based, HCT116, human colon tumor (AID 1045); format: functional;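 also: HCT116 colon tumor cells with beta catenin knocked out; cells exposed to compound for 60 hours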
[8] = target: T4, Rac GTPase-activating protein 1 (Homo sapiens, UniProt Q9H0H5); assay: MgcRacGAP GTPase-activating activity inhibitors, confirmation, biochemical, ADP Hunter fluorescence, primary and confirmatory (AID 624330); format: functional
T4 sequence (Q9H0H5 whole entry): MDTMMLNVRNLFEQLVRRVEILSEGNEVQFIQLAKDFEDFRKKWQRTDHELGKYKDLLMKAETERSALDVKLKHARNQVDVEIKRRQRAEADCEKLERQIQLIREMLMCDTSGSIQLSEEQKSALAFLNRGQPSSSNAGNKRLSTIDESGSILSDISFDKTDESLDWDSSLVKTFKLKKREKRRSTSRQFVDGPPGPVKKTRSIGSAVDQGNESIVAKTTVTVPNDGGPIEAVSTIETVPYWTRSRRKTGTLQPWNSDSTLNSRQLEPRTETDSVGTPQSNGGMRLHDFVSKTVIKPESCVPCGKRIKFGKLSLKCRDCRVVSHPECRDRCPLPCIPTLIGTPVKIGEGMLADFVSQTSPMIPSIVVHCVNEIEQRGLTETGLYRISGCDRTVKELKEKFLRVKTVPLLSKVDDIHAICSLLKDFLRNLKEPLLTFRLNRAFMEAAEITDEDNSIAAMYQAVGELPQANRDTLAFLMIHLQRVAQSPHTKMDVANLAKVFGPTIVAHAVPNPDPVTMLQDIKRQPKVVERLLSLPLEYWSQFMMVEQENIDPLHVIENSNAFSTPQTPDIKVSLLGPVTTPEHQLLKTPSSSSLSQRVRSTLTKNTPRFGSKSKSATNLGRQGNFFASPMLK

[9] = target: FAD-linked sulfhydryl oxidase ALR (Homo sapiens, UniProt P55789); assay: inhibitors of human ALR sulfhydryl oxidase, dose response, biochemical, H2O2 detection, luminescence, cherry-pick (AID 493248)
[10] = target: T5, Replicative DNA helicase DnaB (Mycobacterium tuberculosis, UniProt P9WMR3); assay: DnaB intein splicing inhibitors, dose response, biochemical, cell-free fluorescence (AID 449749); format: functional
T5 sequence (P9WMR3 whole entry): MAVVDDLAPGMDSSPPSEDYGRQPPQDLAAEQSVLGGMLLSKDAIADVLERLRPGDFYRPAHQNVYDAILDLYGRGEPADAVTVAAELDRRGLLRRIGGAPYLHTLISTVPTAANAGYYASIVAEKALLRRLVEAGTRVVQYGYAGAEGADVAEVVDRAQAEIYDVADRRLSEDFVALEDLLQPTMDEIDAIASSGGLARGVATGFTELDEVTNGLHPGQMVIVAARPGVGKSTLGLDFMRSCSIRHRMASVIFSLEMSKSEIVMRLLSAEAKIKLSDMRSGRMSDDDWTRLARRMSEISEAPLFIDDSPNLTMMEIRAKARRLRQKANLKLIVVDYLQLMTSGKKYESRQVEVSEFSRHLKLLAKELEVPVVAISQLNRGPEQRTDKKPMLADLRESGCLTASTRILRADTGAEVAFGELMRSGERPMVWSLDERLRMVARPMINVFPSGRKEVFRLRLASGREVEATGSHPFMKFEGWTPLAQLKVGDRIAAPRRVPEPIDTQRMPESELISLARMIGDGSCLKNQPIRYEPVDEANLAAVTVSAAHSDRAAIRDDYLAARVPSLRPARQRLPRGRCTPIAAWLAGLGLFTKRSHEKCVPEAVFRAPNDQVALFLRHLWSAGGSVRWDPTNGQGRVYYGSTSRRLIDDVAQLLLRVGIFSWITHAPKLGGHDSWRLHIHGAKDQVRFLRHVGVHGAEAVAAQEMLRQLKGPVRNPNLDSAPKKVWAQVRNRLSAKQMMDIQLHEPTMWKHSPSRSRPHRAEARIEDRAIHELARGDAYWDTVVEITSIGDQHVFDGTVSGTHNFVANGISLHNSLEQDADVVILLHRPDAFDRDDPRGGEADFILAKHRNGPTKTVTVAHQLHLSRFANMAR

Protein RecA = target: T6, Protein RecA (Mycobacterium tuberculosis, UniProt P9WHJ3); assay: Fluorescence Cell-Free Homogeneous Dose Retest to Identify Inhibitors of RecA-Intein Splicing Activity. [Related pubchem assays (depositor defined):AID2097, AID2223, AID489010, AID492950]; format: functional
T6 sequence (P9WHJ3 whole entry): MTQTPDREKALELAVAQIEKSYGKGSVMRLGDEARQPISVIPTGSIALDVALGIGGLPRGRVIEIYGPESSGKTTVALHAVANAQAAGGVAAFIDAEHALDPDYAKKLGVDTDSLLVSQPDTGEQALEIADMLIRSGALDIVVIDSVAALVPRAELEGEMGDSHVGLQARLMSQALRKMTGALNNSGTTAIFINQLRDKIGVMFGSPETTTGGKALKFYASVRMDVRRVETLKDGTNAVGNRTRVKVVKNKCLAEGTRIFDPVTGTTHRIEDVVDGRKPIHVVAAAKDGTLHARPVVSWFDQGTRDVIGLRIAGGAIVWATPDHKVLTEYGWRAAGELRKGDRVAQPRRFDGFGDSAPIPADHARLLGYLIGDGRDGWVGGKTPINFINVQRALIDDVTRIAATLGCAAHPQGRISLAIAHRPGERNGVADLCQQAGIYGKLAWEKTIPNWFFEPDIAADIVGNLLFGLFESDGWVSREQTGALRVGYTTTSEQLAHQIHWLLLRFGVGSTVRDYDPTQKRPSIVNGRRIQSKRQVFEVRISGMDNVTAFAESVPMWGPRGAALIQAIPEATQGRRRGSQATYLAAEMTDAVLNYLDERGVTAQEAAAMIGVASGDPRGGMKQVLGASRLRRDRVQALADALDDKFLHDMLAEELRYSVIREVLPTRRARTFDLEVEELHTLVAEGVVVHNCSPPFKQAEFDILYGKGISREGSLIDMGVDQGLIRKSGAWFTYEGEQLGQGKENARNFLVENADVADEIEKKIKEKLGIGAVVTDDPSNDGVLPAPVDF

BJ [11] = assay: cells; format: functional, cell-based; conditions: Homo sapiens
BJ [12] = assay: cytotoxicity toward BJ-TERT-LT-ST fibroblasts, dose response, cell-based, RAS-independent, luminescence (AID 1935); format: functional; conditions: Homo sapiens;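 also: BJ fibroblasts immortalized with TERT plus LT and ST oncogenes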
BJ [13] = assay: cytotoxicity toward BJ-TERT fibroblasts, dose response, cell-based, RAS-independent, luminescence (AID 1933); format: functional; conditions: Homo sapiens
[14] = cytotoxicity toward DRD oncogenic fibroblasts, dose response, cell-based, non-viral oncogenic, luminescence (AID 1934); format: functional; conditions: Homo sapiens

Sequence of Induced myeloid leukemia cell differentiation protein Mcl-1 (Q07820 whole entry): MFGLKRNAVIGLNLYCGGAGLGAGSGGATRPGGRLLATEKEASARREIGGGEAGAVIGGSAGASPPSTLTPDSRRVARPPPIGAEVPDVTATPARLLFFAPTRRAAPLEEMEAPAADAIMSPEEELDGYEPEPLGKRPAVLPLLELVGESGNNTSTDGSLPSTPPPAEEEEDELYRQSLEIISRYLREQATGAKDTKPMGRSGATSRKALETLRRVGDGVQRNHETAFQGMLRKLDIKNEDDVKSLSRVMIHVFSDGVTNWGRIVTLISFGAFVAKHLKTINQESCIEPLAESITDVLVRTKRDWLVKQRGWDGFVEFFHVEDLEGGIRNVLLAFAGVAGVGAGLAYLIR
Sequence of Glyceraldehyde-3-phosphate dehydrogenase (P04406 whole entry): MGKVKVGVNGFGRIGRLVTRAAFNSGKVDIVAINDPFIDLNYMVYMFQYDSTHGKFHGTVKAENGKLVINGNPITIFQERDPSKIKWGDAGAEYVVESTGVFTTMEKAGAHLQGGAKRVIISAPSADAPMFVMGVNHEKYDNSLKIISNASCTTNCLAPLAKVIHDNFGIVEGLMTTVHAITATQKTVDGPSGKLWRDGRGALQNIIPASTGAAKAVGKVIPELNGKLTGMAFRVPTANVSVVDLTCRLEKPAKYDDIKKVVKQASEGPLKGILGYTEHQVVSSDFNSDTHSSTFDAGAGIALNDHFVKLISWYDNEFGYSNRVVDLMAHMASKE
Sequence of Cytochrome P450 2D6 (P10635 whole entry): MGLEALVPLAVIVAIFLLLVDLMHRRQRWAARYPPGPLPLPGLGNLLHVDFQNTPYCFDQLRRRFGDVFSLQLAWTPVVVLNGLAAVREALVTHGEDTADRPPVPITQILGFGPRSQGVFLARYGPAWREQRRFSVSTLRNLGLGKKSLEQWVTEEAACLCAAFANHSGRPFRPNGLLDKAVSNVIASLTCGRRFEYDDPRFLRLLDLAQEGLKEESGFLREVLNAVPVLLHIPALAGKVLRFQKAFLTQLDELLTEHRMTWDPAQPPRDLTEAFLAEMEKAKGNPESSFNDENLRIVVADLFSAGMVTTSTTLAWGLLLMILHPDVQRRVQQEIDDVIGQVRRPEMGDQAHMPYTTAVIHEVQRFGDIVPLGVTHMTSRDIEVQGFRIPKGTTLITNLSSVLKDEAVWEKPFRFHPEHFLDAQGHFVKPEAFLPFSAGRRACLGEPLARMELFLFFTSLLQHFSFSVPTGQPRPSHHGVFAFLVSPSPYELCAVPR
Sequence of Cytochrome P450 3A4 (P08684 whole entry): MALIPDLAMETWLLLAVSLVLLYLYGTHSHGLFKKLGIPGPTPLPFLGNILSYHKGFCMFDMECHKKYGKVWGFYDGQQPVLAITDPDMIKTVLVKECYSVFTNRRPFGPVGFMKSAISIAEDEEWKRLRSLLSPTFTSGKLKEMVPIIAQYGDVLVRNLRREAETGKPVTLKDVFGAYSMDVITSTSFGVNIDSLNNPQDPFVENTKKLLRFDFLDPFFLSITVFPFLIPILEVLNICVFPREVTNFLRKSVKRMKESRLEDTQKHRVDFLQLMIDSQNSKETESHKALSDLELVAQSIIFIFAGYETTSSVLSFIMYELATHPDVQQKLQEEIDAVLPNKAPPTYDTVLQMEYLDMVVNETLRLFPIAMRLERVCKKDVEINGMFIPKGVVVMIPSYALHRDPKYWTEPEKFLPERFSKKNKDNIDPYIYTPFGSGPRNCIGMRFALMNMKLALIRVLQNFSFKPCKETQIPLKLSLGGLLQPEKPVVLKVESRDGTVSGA
Sequence of 26S proteasome non-ATPase regulatory subunit 14 (O00487 whole entry): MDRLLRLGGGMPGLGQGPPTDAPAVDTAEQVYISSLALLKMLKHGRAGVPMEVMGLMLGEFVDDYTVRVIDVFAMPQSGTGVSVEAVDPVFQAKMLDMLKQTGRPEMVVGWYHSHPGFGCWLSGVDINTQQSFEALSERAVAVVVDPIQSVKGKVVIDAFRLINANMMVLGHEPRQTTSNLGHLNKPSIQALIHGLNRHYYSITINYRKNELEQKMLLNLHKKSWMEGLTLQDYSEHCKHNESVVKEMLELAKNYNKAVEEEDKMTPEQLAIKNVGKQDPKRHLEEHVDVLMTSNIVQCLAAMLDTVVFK
Sequence of 72 kDa type IV collagenase (P08253 whole entry): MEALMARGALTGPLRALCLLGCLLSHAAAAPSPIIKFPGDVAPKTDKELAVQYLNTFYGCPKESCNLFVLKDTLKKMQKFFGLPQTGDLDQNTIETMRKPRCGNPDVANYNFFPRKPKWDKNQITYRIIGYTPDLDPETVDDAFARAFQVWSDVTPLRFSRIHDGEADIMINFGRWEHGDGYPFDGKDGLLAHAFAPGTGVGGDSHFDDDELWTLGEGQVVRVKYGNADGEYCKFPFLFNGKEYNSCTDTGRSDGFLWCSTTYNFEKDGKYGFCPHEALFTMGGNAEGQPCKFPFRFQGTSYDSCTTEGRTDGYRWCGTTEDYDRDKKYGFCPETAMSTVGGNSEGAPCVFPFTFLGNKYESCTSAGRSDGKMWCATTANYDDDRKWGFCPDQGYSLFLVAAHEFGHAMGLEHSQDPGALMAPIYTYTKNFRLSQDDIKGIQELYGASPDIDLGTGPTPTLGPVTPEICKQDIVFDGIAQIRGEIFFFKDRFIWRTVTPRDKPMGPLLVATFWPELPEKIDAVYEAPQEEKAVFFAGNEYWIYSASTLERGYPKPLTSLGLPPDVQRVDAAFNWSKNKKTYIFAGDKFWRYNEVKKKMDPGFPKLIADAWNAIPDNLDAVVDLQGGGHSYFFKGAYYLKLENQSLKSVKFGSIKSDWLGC
Sequence of FAD-linked sulfhydryl oxidase ALR (P55789 whole entry): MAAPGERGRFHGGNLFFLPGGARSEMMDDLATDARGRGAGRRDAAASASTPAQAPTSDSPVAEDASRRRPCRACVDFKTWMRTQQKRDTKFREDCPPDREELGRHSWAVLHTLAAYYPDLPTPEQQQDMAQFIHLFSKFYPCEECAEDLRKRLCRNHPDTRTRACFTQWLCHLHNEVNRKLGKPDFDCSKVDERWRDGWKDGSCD

For Cc1cccc(NC(=O)C2(c3ccc([N+](=O)[O-])cc3)CCCC2)c1, the AC50 (CAAX prenyl protease 2) was 14 µM (active).

With COc1ccc(OC)c(NCc2cnc3ccccc3c2)c1 the IC50 [1] was > 100 µM (not active) and the IC50 [2] was > 100 µM (inactive).

For COC(=O)C(Cc1ccc(OC(=O)c2ccc(Cl)cc2)cc1)N1Cc2ccccc2C1=O (centres undefined), the AC50 (Cytochrome P450 2D6) was 5.01 µM (inconclusive), the AC50 (Cytochrome P450 1A2) was 31.6 µM (inconclusive) and the AC50 (Cytochrome P450 3A4) was “inconclusive”.

In the case of COc1ccc(C)cc1S(=O)(=O)Nc1ccc2ccccc2c1, the IC50 [1] is reported as > 100 µM (not active) and the IC50 [2] is reported as > 100 µM (inactive).

In the case of COc1ccc2nc(N3C(=O)/C(=C/c4ccc(Cl)cc4)NC3=S)sc2c1, the IC50 [3] is reported as 33.5 µM (active), the EC50 [4] is reported as 28.3 µM (active) and the IC50 [5] is reported as 1.5 µM (active). For the same compound, the IC50 (Prothrombin) was 53 µM (active), the IC50 [6] was 13.3 µM (active) and the EC50 [7] was 30.4 µM (active).

In the case of Cc1ccc(S(=O)(=O)Nc2ccc(N(C)C)cc2)cc1, the IC50 [5] is reported as 10.7 µM (not active), the IC50 [8] is reported as 33.1 µM (active) and the AC50 [9] is reported as 4.46 µM (active).

For O=C(CCl)Nc1c(C(=O)Nc2ccc3c(c2)OCCO3)oc2ccccc12, the AC50 [10] was 7.89 µM (active), the EC50 (Protein RecA) was 1.06 µM (active) and the EC50 (BJ [11]) was 29.4 µM (active). The EC50 (BJ [12]) was > 150 µM (inconclusive), the EC50 (BJ [13]) was 3.66 µM (active) and the EC50 [14] was 19 µM (active).

With Cc1ccc(C(=O)OCC(=O)Nc2ccc(N(C)C)cc2)cc1NC(=O)c1ccco1 the IC50 [5] was 3.67 µM (not active).
